How the values were obtained:
IKKε = IKKε (Homo sapiens (Human), UniProt Q14164); experiment: TR-FRET kinase assay, IKKε; assay type: biochemical; conditions: full length recombinant IKKε 0.3 nM, 2x Km ATP, 1 μM peptide, 240 min at 25° C.; geometric mean of minimum four determinations
From the text: Biological Assay for TBK1 and IKKs:

TBK1 = TBK1 (Homo sapiens (Human), UniProt Q9UHD2); experiment: TR-FRET kinase assay, TBK1; conditions: read-out: TBK1-IC50; full length recombinant TBK1 2.5 nM, 2x Km ATP, 1 μM peptide, 240 min at 25° C.; geometric mean of minimum four determinations
TBK1, sequence (Q9UHD2 whole entry): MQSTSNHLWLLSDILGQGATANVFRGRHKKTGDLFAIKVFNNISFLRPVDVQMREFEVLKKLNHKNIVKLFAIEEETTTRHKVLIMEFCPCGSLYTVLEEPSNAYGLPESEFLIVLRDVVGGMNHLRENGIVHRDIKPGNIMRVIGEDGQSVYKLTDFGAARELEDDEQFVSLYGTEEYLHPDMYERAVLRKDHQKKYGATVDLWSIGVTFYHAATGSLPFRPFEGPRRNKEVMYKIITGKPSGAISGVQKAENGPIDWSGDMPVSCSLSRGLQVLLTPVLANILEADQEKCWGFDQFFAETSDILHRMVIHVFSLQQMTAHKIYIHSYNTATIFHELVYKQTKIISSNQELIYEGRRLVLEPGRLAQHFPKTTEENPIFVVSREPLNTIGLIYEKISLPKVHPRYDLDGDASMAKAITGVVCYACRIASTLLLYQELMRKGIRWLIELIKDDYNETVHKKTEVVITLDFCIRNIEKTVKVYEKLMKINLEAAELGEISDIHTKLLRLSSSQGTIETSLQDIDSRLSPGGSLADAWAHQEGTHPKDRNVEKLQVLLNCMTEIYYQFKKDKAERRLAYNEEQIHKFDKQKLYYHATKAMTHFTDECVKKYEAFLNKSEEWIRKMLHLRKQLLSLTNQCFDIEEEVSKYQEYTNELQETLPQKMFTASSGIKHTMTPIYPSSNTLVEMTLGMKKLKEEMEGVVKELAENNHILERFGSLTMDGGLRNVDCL

IKKε, sequence (Q14164 whole entry): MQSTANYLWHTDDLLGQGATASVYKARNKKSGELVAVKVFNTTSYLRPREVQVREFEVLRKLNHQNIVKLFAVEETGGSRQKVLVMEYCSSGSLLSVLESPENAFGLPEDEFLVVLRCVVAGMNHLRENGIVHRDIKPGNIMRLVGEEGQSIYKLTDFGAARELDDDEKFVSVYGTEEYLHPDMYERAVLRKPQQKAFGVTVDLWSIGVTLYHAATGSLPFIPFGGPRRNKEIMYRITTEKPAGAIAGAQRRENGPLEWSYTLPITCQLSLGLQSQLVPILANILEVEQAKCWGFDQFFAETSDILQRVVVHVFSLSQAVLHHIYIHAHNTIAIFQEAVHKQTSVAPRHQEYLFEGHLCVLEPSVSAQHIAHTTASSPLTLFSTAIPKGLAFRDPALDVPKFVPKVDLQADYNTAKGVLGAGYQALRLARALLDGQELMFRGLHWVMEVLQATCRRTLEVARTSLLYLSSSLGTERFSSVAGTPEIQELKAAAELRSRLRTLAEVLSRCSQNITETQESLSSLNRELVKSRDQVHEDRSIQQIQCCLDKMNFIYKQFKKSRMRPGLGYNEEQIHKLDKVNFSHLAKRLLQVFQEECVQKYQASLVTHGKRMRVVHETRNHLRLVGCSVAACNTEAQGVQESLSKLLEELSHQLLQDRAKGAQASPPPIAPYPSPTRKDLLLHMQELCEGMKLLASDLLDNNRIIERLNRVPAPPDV

Structure (SMILES) | IC50 (IKKε) | IC50 (TBK1)
N#Cc1cc(-c2ccnc3[nH]c(C#CCO)cc23)ccc1OC1CCOCC1 [Example 148, 5-(2-(3-hydroxyprop-1-yn-1-yl)-1H-pyrrolo[2,3-b]pyridin-4-yl)-2-((tetrahydro-2H-pyran-4-yl)oxy)benzonitrile] | 205 nM | 184 nM
CN1CCN(c2ccc(-c3nc4c(-c5ccc(OC6CCOCC6)c(C#N)c5)ccnc4[nH]3)cc2)CC1 [Example 306, 5-(2-(4-(4-methylpiperazin-1-yl)phenyl)-3H-imidazo[4,5-b]pyridin-7-yl)-2-((tetrahydro-2H-pyran-4-yl)oxy)benzonitrile] | 1.21 nM | 1.85 nM
CN1CCN(c2ccc(-c3nc4c(-c5ccc(OC6CCOCC6)c(C#N)c5)ncnc4[nH]3)cc2)CC1 [Example 212, 5-(8-(4-(4-methylpiperazin-1-yl)phenyl)-9H-purin-6-yl)-2-((tetrahydro-2H-pyran-4-yl)oxy)benzonitrile] | 1.08 nM | 1.14 nM
N#Cc1cc(-c2ncnc3[nH]c(-c4ccc(OCCN5CCCC5)cc4)nc23)ccc1OC1CCN(C(=O)CO)CC1 [Example 233, 2-((1-(2-hydroxyacetyl)piperidin-4-yl)oxy)-5-(8-(4-(2-(pyrrolidin-1-yl)ethoxy)phenyl)-9H-purin-6-yl)benzonitrile] | 2.04 nM | 3.33 nM
N#Cc1cc(-c2ccnc3[nH]c(-c4ccc(N5CCOCC5)cc4)cc23)ccc1OC1CN(C(=O)CO)C1 [Example 154, 2-((1-(2-hydroxyacetyl)azetidin-3-yl)oxy)-5-(2-(4-morpholinophenyl)-1H-pyrrolo[2,3-b]pyridin-4-yl)benzonitrile] | 146 nM | 32.4 nM
Cc1ccc(-c2ccnc3[nH]c(-c4ccc(N5CCOCC5)cc4)cc23)cc1C#N [Example 69, 2-methyl-5-(2-(4-morpholinophenyl)-1H-pyrrolo[2,3-b]pyridin-4-yl)benzonitrile] | > 1000 nM | 79.7 nM
CC(C)(O)c1ccc(-c2cc3c(-c4ccc(OC5CCOCC5)c(C#N)c4)ncnc3[nH]2)cc1 [Example 109, 5-(6-(4-(2-hydroxypropan-2-yl)phenyl)-7H-pyrrolo[2,3-d]pyrimidin-4-yl)-2-((tetrahydro-2H-pyran-4-yl)oxy)benzonitrile] | 4.99 nM | 0.821 nM
COc1cc(-c2cc3c(-c4ccc(O[C@H]5CCN(C(=O)CO)C[C@H]5F)c(C#N)c4)ncnc3[nH]2)ccc1N1CCN(C2COC2)CC1 [Example 145, 2-(((3R,4S)-3-fluoro-1-(2-hydroxyacetyl)piperidin-4-yl)oxy)-5-(6-(3-methoxy-4-(4-(oxetan-3-yl)piperazin-1-yl)phenyl)-7H-pyrrolo[2,3-d]pyrimidin-4-yl)benzonitrile] | 0.481 nM | 1.05 nM
N#Cc1nc(-c2ccnc3[nH]c(-c4ccc(N5CCOCC5)cc4)nc23)ccc1OC1CCOCC1 [Example 304, 6-(2-(4-morpholinophenyl)-3H-imidazo[4,5-b]pyridin-7-yl)-3-((tetrahydro-2H-pyran-4-yl)oxy)picolinonitrile] | 18.6 nM | 9.25 nM
N#Cc1cc(-c2ncnc3[nH]c(-c4ccc(N5CCOCC5)cc4)nc23)ccc1O[C@@H]1CCN(C(=O)CO)C1 [Example 208, (R)-2-((1-(2-hydroxyacetyl)pyrrolidin-3-yl)oxy)-5-(8-(4-morpholinophenyl)-9H-purin-6-yl)benzonitrile] | 7.58 nM | 1.68 nM
N#Cc1cc(-c2ccnc3[nH]c(-c4ccc(N)nc4)cc23)ccc1OC1CCOCC1 [Example 11, 5-(2-(6-aminopyridin-3-yl)-1H-pyrrolo[2,3-b]pyridin-4-yl)-2-((tetrahydro-2H-pyran-4-yl)oxy)benzonitrile] | 9.51 nM | 5.53 nM
N#Cc1cc(-c2ccnc3[nH]c(-c4ccc(N5CCOCC5)cc4)cc23)ncc1OC1CCOCC1 [Example 26, 2-(2-(4-morpholinophenyl)-1H-pyrrolo[2,3-b]pyridin-4-yl)-5-((tetrahydro-2H-pyran-4-yl)oxy)isonicotinonitrile] | 6.84 nM | 3.43 nM
Cc1noc(C)c1-c1cc2c(-c3ccc(OC4CCOCC4)c(C#N)c3)ccnc2[nH]1 [Example 216, 5-(2-(3,5-dimethylisoxazol-4-yl)-1H-pyrrolo[2,3-b]pyridin-4-yl)-2-((tetrahydro-2H-pyran-4-yl)oxy)benzonitrile] | 121 nM | 67.6 nM
N#Cc1cc(-c2ccnc3[nH]c(-c4ccc(C5(O)COC5)cc4)cc23)ccc1OC1CCOCC1 [Example 8, 5-(2-(4-(3-hydroxyoxetan-3-yl)phenyl)-1H-pyrrolo[2,3-b]pyridin-4-yl)-2-((tetrahydro-2H-pyran-4-yl)oxy)benzonitrile] | 6.99 nM | 3.09 nM
N#Cc1cc(-c2ccnc3[nH]c(C4=CCN(C(=O)CO)C4)cc23)ccc1OC1CCOCC1 [Example 182, 5-(2-(1-(2-hydroxyacetyl)-2,5-dihydro-1H-pyrrol-3-yl)-1H-pyrrolo[2,3-b]pyridin-4-yl)-2-((tetrahydro-2H-pyran-4-yl)oxy)benzonitrile] | 35.5 nM | 14.8 nM
CN1CCN(c2ccc(-c3cc4c(-c5ccc(OC6CCOCC6)c(C#N)c5)ccnc4[nH]3)cc2)CC1 [Example 82, 5-(2-(4-(4-methylpiperazin-1-yl)phenyl)-1H-pyrrolo[2,3-b]pyridin-4-yl)-2-((tetrahydro-2H-pyran-4-yl)oxy)benzonitrile] | 0.29 nM | 0.9 nM
N#Cc1cc(-c2ncnc3[nH]c(-c4ccc(C(=O)N5CCCC5)cc4)cc23)ccc1OC1CCOCC1 [Example 185, 5-(6-(4-(pyrrolidine-1-carbonyl)phenyl)-7H-pyrrolo[2,3-d]pyrimidin-4-yl)-2-((tetrahydro-2H-pyran-4-yl)oxy)benzonitrile] | 5.39 nM | 1.33 nM
N#Cc1cc(-c2ccnc3[nH]c(C4=CCNCC4)cc23)ccc1OC1CCOCC1 [Example 5, 2-((tetrahydro-2H-pyran-4-yl)oxy)-5-(2-(1,2,3,6-tetrahydropyridin-4-yl)-1H-pyrrolo[2,3-b]pyridin-4-yl)benzonitrile] | 39.7 nM | 29.8 nM
N#Cc1cc(-c2ccnc3[nH]c(-c4ccc(N5CCOCC5)cc4)cc23)ccc1O[C@@H]1CCNC1 [Example 14, (R)-5-(2-(4-morpholinophenyl)-1H-pyrrolo[2,3-b]pyridin-4-yl)-2-(pyrrolidin-3-yloxy)benzonitrile] | 20.8 nM | 6.86 nM
N#Cc1cc(-c2ccnc3[nH]c(-c4ccc(N5CCOCC5)cc4)cc23)ccc1OC1CCOCC1 [Example 48, 5-(2-(4-morpholinophenyl)-1H-pyrrolo[2,3-b]pyridin-4-yl)-2-((tetrahydro-2H-pyran-4-yl)oxy)benzonitrile] | 11.5 nM | 3.26 nM
N#Cc1cc(-c2ccnc3[nH]c(-c4cnn(C5CNC5)c4)cc23)ccc1OC1CCOCC1 [Example 9, 5-(2-(1-(azetidin-3-yl)-1H-pyrazol-4-yl)-1H-pyrrolo[2,3-b]pyridin-4-yl)-2-((tetrahydro-2H-pyran-4-yl)oxy)benzonitrile] | 1.41 nM | 2.38 nM
COc1cc(-c2cc3c(-c4ccc(OC5CCS(=O)(=O)CC5)c(C#N)c4)ncnc3[nH]2)ccc1N1CCN(C2COC2)CC1 [Example 139, 2-((1,1-dioxidotetrahydro-2H-thiopyran-4-yl)oxy)-5-(6-(3-methoxy-4-(4-(oxetan-3-yl)piperazin-1-yl)phenyl)-7H-pyrrolo[2,3-d]pyrimidin-4-yl)benzonitrile] | 25 nM | 3.68 nM
